Results: US20050260126A1 (priority 2002, published 2005)
Where a name gives a salt, the structure may show the parent alone.

Key:
[1] = test system: abnormal prion proteins in ScN2a cells with persistent infection of scrapie; assay: cells; format: cell-based, mouse; conditions: for IC50: Mus musculus, ScN2a, 96 h, read-out: Inhibitory effects on producing abnormal prion protein IC50; for Inhibitory effects on producing abnormal prion proteins (in words): ScN2a cells
[2] = Slc:ICR, mouse, not told, iv
ScN2a cells = conditions: for Concentration of inhibiting cell proliferation TC: mouse
[3] = test system: abnormal prion proteins (kuru plaques) in brain sections of GSS patients; set-up: species or system human; conditions: GSS patient brain sections, 10-200 μM in 50% ethanol, 30 minutes
in vivo = conditions: male, Crj:CD1, mouse, iv

Row | SMILES | IC50 [1] [nM] | Permeability into the brain: content in Brain [2] | Permeability into the brain: content in Plasma [2] | Concentration of inhibiting cell proliferation TC (ScN2a cells) [µM] | Detection of spotted depositions of abnormal prion proteins (fluorescent signals) [3] | MTD (in vivo) [mg/kg] | Inhibitory effects on producing abnormal prion proteins (in words) [1] | TC and safety concentration margin (in words) (ScN2a cells)
1 | CCN(CC)c1ccc(-c2ccc3ccccc3n2)cc1 [Compound N-313, 2-[(4-diethylamino)-phenyl]quinoline] | 500 | 4.6 % ID/g or ml | 1.1 % ID/g or ml | 50 | spotted fluorescent signals were observed | – | – | –
2 | CN(C)c1ccc(/C=C/c2nc3cc(F)ccc3s2)cc1 [BF-162, 2-(4-dimethylamino) styryl-5-fluorobenzo-thiazole] | 10 | – | – | 100 | spotted fluorescent signals were observed | – | – | –
3 | Nc1ccc(C(=O)Nc2ccc(-c3nc4ccc(NC(=O)c5ccc(N)cc5)c(Cl)c4[nH]3)cc2)cc1 [Compound N-227, 4-[6-(N′-(4-amino-benzoyl)amino)-7-chlorobenzimidazol-2-yl]-N-(4-aminobenzoyl)aniline] | 10 | – | – | 10 | spotted fluorescent signals were observed | – | – | –
4 | Clc1ccccc1/C=C/c1nc2ccccc2s1 [Compound N-454, 2-[2-(2-chlorophenyl)ethenyl]benzothiazole] | 10 | – | – | 100 | spotted fluorescent signals were observed | – | – | –
5 | COc1cc(/C=C/c2nc3ccccc3s2)cc(OC)c1 [Compound N-408, 2-[2-(3,5-dimethoxy-phenyl)ethenyl]-benzothiazole] | 10 | – | – | 100 | spotted fluorescent signals were observed | – | – | –
6 | CN(C)c1ccc2cc(-c3nc4cc(F)ccc4o3)ccc2c1 [BF-151, 5-fluoro-2-(6-dimethyl-aminonaphthalen-2-yl)benzoxazole] | 10 | – | – | 100 | spotted fluorescent signals were observed | – | – | –
7 | Cc1nc(/C=C/c2ccc(N(C)C)cc2)oc1C [BF-137, 2-[2-(4-dimethylamino-phenyl)ethenyl]-4-5-dimethyloxazole] | 100 | 6.5 % ID/g or ml | 2.9 % ID/g or ml | 100 | – | ≥ 10 | – | –
8 | Nc1ccc(/C=C/c2nc3cc(F)ccc3o2)cc1 [BF-140, 2-(4-amino)styryl-5-fluorobenzoxazole] | 5 | 5.5 % ID/g or ml | 1.1 % ID/g or ml | 50 | – | ≥ 10 | – | –
9 | CN(C)c1ccc(-c2ccc3ccccc3n2)cc1 [Compound N-310, 2-[(4-dimethylamino)-phenyl]quinoline] | 5 | 15 % ID/g or ml | 1.0 % ID/g or ml | 50 | spotted fluorescent signals were observed | – | – | –
10 | CNc1ccc(C=Cc2ccc3ccccc3n2)c(CF)c1 [BF-195, 2-[2-(2-fluoromethyl-4-methylaminophenyl)-ethenyl]quinoline] | 32 | 4.8 % ID/g or ml | 1.2 % ID/g or ml | 10 | – | ≥ 10 | – | –
11 | CN(C)c1ccc2cc(-c3nc4cc(F)ccc4s3)ccc2c1 [BF-154, 5-fluoro-2-(6-dimethyl-aminonaphthalen-2-yl)benzothiazole] | – | 1.1 % ID/g or ml | 1.4 % ID/g or ml | – | spotted fluorescent signals were observed | – | – | –
12 | Fc1ccc(/C=C/c2nc3ccccc3o2)cc1 [BF-208, 2-[2-(4-fluorophenyl)ethenyl]benzoxazole] | 0.8 | 11.0 % ID/g or ml | 0.53 % ID/g or ml | >10 | – | ≥ 10 | – | –
13 | CN(C)c1ccc(/C=C/c2nc3cc4c(cc3s2)OCO4)cc1 [Compound N-277, 4-[2-(5,6-methylene-dioxy-benzothiazol-2-yl)ethenyl]-N,N-di-methylbenzenamin] | 50 | – | – | 50 | detection of spotted depositions of abnormal prion proteins | – | – | –
14 | CN(C)c1ccc(/C=C/c2nc3ccc(F)cc3o2)cc1 [BF-148, 2-(4-dimethylamino) styryl-6-fluoro-benzoazole] | 1 | – | – | 10 | spotted fluorescent signals were observed | – | highly inhibitory effects | –
15 | CNc1ccc(/C=C/c2nc3cc(I)ccc3o2)cc1 [BF-180, 2-(4-methylamino)-styryl-5-iodobenzoxazole] | 10 | 2.4 % ID/g or ml | 1.2 % ID/g or ml | 100 | – | ≥ 10 | – | –
16 | CN(C)c1ccc(/C=C/c2nc3ccccc3o2)cc1 [Compound N-282, 2-(4-dimethylamino) styrylbenzoxazole] | 50 | 4.0 % ID/g or ml | 0.7 % ID/g or ml | 50 | spotted fluorescent signals were observed | – | – | –
17 | CCN(CC)c1ccc(/C=C/c2cn3cc(F)ccc3n2)cc1 [BF-136, 2-[2-(4-diethylaminophenyl)ethenyl]-6-fluoroimidazo[1,2-a]-pyridine] | 1 | – | – | 10 | spotted fluorescent signals were observed | – | highly inhibitory effects | –
18 | CN(C)c1ccc(/C=C/c2ccco2)cc1 [BF-142, 2-[2-(4-dimethylamino-phenyl)ethenyl]furan] | 10 | – | – | 100 | spotted fluorescent signals were observed | – | – | –
19 | Nc1ccc(/C=C/c2nc3ccccc3[nH]2)cc1 [Compound N-398, 4-[2-(2-benzimidazolyl)-ethenyl]benzenamine sulfate] | 5 | – | – | 50 | spotted fluorescent signals were observed | – | – | –
20 | CN(C)c1ccc(/C=C/c2nc3ccccc3s2)cc1 [Compound N-276, 4-[2-(2-benzothiazolyl)-ethenyl]-N,N-dimethyl-benzenamine] | 5 | – | – | 50 | spotted fluorescent signals were observed | – | – | –
21 | CNc1ccc(/C=C/C=C/c2nc3ccccc3s2)cc1 [BF-187, 2-[[4-(4-methylamino)-phenyl]-1,3-butadienyl]-benzothiazole] | 10 | 3.6 % ID/g or ml | 1.3 % ID/g or ml | 10 | – | ≥ 10 | – | –
22 | C(=C\c1nc2ccccc2[nH]1)/c1ccccc1 [Compound N-491, 2-styrylbenzimidazole] | 10 | 7.4 % ID/g or ml | 2.3 % ID/g or ml | 100 | – | ≥ 10 | – | –
23 | Clc1ccc(/C=C/c2nc3ccccc3[nH]2)cc1 [Compound N-457, 2-[2-(4-chlorophenyl)ethenyl]benzimidazole] | 1 | 7.1 % ID/g or ml | 2.8 % ID/g or ml | 100 | – | ≥ 10 | highly inhibitory effects | higher TCs, therefore higher safety concentration margins
24 | Cc1ccc2sc(/C=C/c3ccccc3C)nc2c1 [Compound N-440, 2-[2-(2-methylphenyl)-ethenyl]-5-methyl-benzothiazole] | 100 | – | – | 100 | spotted fluorescent signals were observed | – | – | –
25 | CN(C)c1ccc(/C=C/c2nc3cc(F)ccc3o2)cc1 [BF-133, 2-(4-dimethylamino) styryl-5-fluoro-benzoxazole] | 5 | 5.5 % ID/g or ml | 1.3 % ID/g or ml | 50 | spotted fluorescent signals were observed | – | – | –
26 | CN(C)c1ncc(/C=C/c2ccc3ccccc3n2)s1 [BF-222, 2-[2-(2-dimethylthiazol-5-yl)ethenyl]quinoline] | 8 | 13.0 % ID/g or ml | 2.0 % ID/g or ml | >10 | – | ≥ 10 | – | –
27 | CNc1ccc(/C=C/c2ccc3ccccc3n2)cc1 [BF-178, 2-[2-(4-methylaminophenyl)ethenyl]quinoline] | 1000 | 6.3 % ID/g or ml | 4.5 % ID/g or ml | 100 | – | ≥ 10 | – | –
